Reference: patent publication US4347319A, “Microbiological epoxidation process” (priority 1980, dated 1982)
Read-outs that look alike come from different tables or passages of the source.

Experiments:
Assay in all cases: Oxidation by washed cell suspensions of methane-grown cells
Format in all cases: cell-based
[1] = test system: Methylobacter vinelandii (CRL M5Y) NRRL B-11,218; conditions: for Oxidative Conversion Rates: methane-grown washed cells, 30° C., methane to methanol, alkene to 1,2-epoxide
Procedure, shortened: (§1)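 First, strains were cultured aerobically on methane at 30 °C until turbid, then pelleted and washed in phosphate buffer (0.15 M, pH 7.0). Next, 2 mg cell portions were sealed under substrate plus oxygen (1:1) and shaken at 30 °C. Finally, withdrawn samples were analysed by gas chromatography.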

[2] = test system: Methylomonas streptobacterium (CRL 17 PM3) NRRL B-11,208
Procedure, shortened: as §1

[3] = test system: Methylobacter bovis (CRL 19 PM5) NRRL B-11,217
Procedure, shortened: as §1

[4] = test system: Methylomonas agile (CRL 22 PM9) NRRL B-11,209
Procedure, shortened: as §1

[5] = test system: Methylococcus capsulatus (CRL 25 PM13) NRRL B-11,221
Procedure, shortened: as §1

[6] = test system: Methylomonas rubrum (CRL 20 PM6) NRRL B-11,211; conditions: for Oxidative Conversion Rates: methane-grown washed cells, 30° C., methane to methanol, alkene to 1,2-epoxide
Procedure, shortened: as §1

[7] = methane-grown cells, 2-butanol to 2-butanone
[8] = methane-grown washed cells, 30° C., methane to methanol, alkene to 1,2-epoxide

Row | Compound | Oxidative Conversion Rates [2, 8] [μmole/hr/mg protein] | Oxidative Conversion Rates [3, 8] [μmole/hr/mg protein] | Oxidative Conversion Rates [4, 8] [μmole/hr/mg protein] | Oxidative Conversion Rates [5, 8] [μmole/hr/mg protein] | Oxidative Conversion Rates [1] [μmole/hr/mg protein] | Oxidative Conversion Rates [6] [μmole/hr/mg protein] | other results
1 | CCC(C)O (stereo not drawn) [2-Butanol] |  |  |  |  |  |  | Conversion Rate to Ketone, 2 hrs. [1, 7]: 2 μmole/2 mg protein; Conversion Rate to Ketone, 20 hrs. [1, 7]: 18 μmole/2 mg protein
2 | C=CC=C [Butadiene] | 2.6 | 2.3 | 2.0 | 2.5 |  |  | 
3 | CCCC [Butane] |  |  |  |  |  |  | Conversion Rate [2]: 1.2 μmoles/hr/^5 mg. protein
4 | C [Methane] |  |  |  |  | 0.9 | 0.42 | Oxidative Conversion Rates [2]: 1.1; Oxidative Conversion Rates [3]: 2.0; Oxidative Conversion Rates [4]: 0.6; Oxidative Conversion Rates [5]: 2.1
5 | CCC [Propane] |  |  |  |  |  |  | Conversion Rate ([2]; growth substrate Methane, n-alkane to secondary alcohol): 1.6 μmoles/hr/^5 mg. protein; Conversion Rate to Ketone ([6]; methane-grown cells, propane to acetone): 3.5 μmoles/hr/mg Protein
6 | C=CC [Propylene] | 1.0 | 2.2 | 1.6 | 1.2 | 1.9 | 1.9 | 
